In PubChem BioAssay AID330 (DTP/NCI, 2004):
“And” between values parts separate entries of the source, which are not always exact repeats. Identical values can stand only once. Inconclusive results and toxic doses are left out.

Tested on: P388 leukemia ip, CD2F1 mice, survival T/C
Assay: NCI In Vivo Anticancer Drug Screen. Data for tumor model P388 Leukemia (intraperitoneal) in CD2F1 (CDF1) mice
Settings: endpoint: median survival time, higher = longer survival
Procedure, shortened: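 Mice carrying the transplanted tumor received test compound or vehicle. Survival was recorded in each group, and the value is the treated-group measurement divided by that of the vehicle-treated control group.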

[1] = dose: 12.5 mg/kg/injection, schedule: Q01DX005 (ip), vehicle: Klucel (hydroxypropylcellulose) (HPC)
[2] = dose: 25.0 mg/kg/injection, schedule: Q01DX005 (ip), vehicle: Klucel (hydroxypropylcellulose) (HPC)
[3] = dose: 50.0 mg/kg/injection, schedule: Q01DX005 (ip), vehicle: Klucel (hydroxypropylcellulose) (HPC)
[4] = dose: 50.0 mg/kg/injection, schedule: Q01DX009 (ip), vehicle: Klucel (hydroxypropylcellulose) (HPC)
[5] = dose: 100.0 mg/kg/injection, schedule: Q01DX009 (ip), vehicle: Klucel (hydroxypropylcellulose) (HPC)
[6] = dose: 200.0 mg/kg/injection, schedule: Q01DX009 (ip), vehicle: Klucel (hydroxypropylcellulose) (HPC)
[7] = dose: 60.0 mg/kg/injection, schedule: Q01DX005 (ip), vehicle: saline with Tween-80
[8] = dose: 120.0 mg/kg/injection, schedule: Q01DX005 (ip), vehicle: saline with Tween-80
[9] = dose: 240.0 mg/kg/injection, schedule: Q01DX005 (ip), vehicle: saline with Tween-80
[10] = dose: 50.0 mg/kg/injection, schedule: Q01DX009 (ip), vehicle: saline
[11] = dose: 100.0 mg/kg/injection, schedule: Q01DX009 (ip), vehicle: saline
[12] = dose: 200.0 mg/kg/injection, schedule: Q01DX009 (ip), vehicle: saline
[13] = dose: 100.0 mg/kg/injection, schedule: Q01DX009 (ip), vehicle: suspension in saline
[14] = dose: 50.0 mg/kg/injection, schedule: Q01DX009 (ip), vehicle: saline with Tween-80
[15] = dose: 100.0 mg/kg/injection, schedule: Q01DX009 (ip), vehicle: saline with Tween-80
[16] = dose: 60.0 mg/kg/injection, schedule: Q01DX005 (ip), vehicle: Klucel (hydroxypropylcellulose) (HPC)
[17] = dose: 120.0 mg/kg/injection, schedule: Q01DX005 (ip), vehicle: Klucel (hydroxypropylcellulose) (HPC)
[18] = dose: 240.0 mg/kg/injection, schedule: Q01DX005 (ip), vehicle: Klucel (hydroxypropylcellulose) (HPC)

C[N+]1=C(/C=C/Nc2cccc(N/C=C/C3=[N+](C)c4ccccc4C3(C)C)c2)C(C)(C)c2ccccc21
T/C [1]: 97 % of control | T/C [2]: 97 % of control | T/C [3]: 105 % of control

COC(=O)C1(C2CCc3cc(OC)ccc3C2=O)NC(=S)NC(=O)C1C#N (centres undefined)
T/C (dose: 7.5 mg/kg/injection, schedule: Q01DX005 (ip), vehicle: saline with Tween-80): 96 % of control | T/C (dose: 15.0 mg/kg/injection, schedule: Q01DX005 (ip), vehicle: saline with Tween-80): 97 % of control | T/C (dose: 30.0 mg/kg/injection, schedule: Q01DX005 (ip), vehicle: saline with Tween-80): 93 % of control

CC(C)(C)c1cc(C2C(C#N)C(=O)NC(=O)C2C#N)cc(C(C)(C)C)c1O (centres undefined)
T/C [4]: 103 % of control | T/C [5]: 100 % of control | T/C [6]: 94 % of control

COc1ccc2c(=O)c(S)coc2c1
T/C [7]: 100 % of control | T/C [8]: 101 % of control | T/C [9]: 100 % of control

CCCCCCCCCNCC(O)c1cc2c(c3ccccc13)CCCC2 (centres undefined)
T/C (dose: 6.25 mg/kg/injection, schedule: Q01DX005 (ip), vehicle: Klucel (hydroxypropylcellulose) (HPC)): 92 % of control | T/C [1]: 90 % of control | T/C [2]: 99 % of control

CCOC1(C)OC2OC(COC(c3ccccc3)(c3ccccc3)c3ccccc3)C(O)C(O)C2O1 (centres undefined)
T/C (dose: 12.5 mg/kg/injection, schedule: Q01DX009 (ip), vehicle: other): 97 % of control | T/C (dose: 25.0 mg/kg/injection, schedule: Q01DX009 (ip), vehicle: other): 97 % of control | T/C (dose: 50.0 mg/kg/injection, schedule: Q01DX009 (ip), vehicle: other): 95 % of control | T/C (dose: 100.0 mg/kg/injection, schedule: Q01DX009 (ip), vehicle: other): 98 % of control | T/C (dose: 200.0 mg/kg/injection, schedule: Q01DX009 (ip), vehicle: other): 98 % of control

CCOC(=O)CC(C(=O)OCC)C(=O)OCC
T/C (dose: 25.0 mg/kg/injection, schedule: Q01DX009 (ip), vehicle: saline): 97 % of control | T/C [10]: 100 % of control | T/C [11]: 103 % of control | T/C [12]: 106 % of control

CC(=NC1CCCCC1)c1c(O)oc(C=Nc2ccccc2)c1O
T/C (dose: 50.0 mg/kg/injection, schedule: Q01DX005 (ip), vehicle: saline with Tween-80): 100 % of control | T/C (dose: 100.0 mg/kg/injection, schedule: Q01DX005 (ip), vehicle: saline with Tween-80): 105 % of control | T/C (dose: 200.0 mg/kg/injection, schedule: Q01DX005 (ip), vehicle: saline with Tween-80): 100 % of control

O=C1NC(=O)C2(Br)Nc3ccc(Br)cc3C(=O)C2N1 (centres undefined)
T/C [3]: 100 % of control | T/C (dose: 100.0 mg/kg/injection, schedule: Q01DX005 (ip), vehicle: Klucel (hydroxypropylcellulose) (HPC)): 98 % of control | T/C (dose: 200.0 mg/kg/injection, schedule: Q01DX005 (ip), vehicle: Klucel (hydroxypropylcellulose) (HPC)): 90 % of control

CC1CC(=O)Nc2nc(N)ncc21 (centres undefined)
T/C [7]: 102 % of control | T/C [8]: 106 % of control | T/C [9]: 108 % of control

CS(=O)CC(=N\N)/C(CS(C)=O)=N/N (centres undefined)
T/C (dose: 60.0 mg/kg/injection, schedule: Q01DX005 (ip), vehicle: saline): 100 % of control | T/C (dose: 120.0 mg/kg/injection, schedule: Q01DX005 (ip), vehicle: saline): 95 % of control | T/C (dose: 240.0 mg/kg/injection, schedule: Q01DX005 (ip), vehicle: saline): 102 % of control

C=C1C(=O)C23C(OC(=O)c4ccccc4)C1CCC2C12COC3(O)C(O)C1C(C)(C)CCC2O (centres undefined)
T/C (dose: 3.75 mg/kg/injection, schedule: Q01DX009 (ip), vehicle: saline with Tween-80): 103 % of control and 107 % of control and 110 % of control | T/C (dose: 7.5 mg/kg/injection, schedule: Q01DX009 (ip), vehicle: saline with Tween-80): 102 % of control and 112 % of control and 120 % of control | T/C (dose: 15.0 mg/kg/injection, schedule: Q01DX009 (ip), vehicle: saline with Tween-80): 100 % of control and 118 % of control and 119 % of control | T/C (dose: 30.0 mg/kg/injection, schedule: Q01DX009 (ip), vehicle: saline with Tween-80): 109 % of control and 115 % of control

COC1=CC(=O)C(=O)C(C(C)(C)C)=C1
T/C (dose: 15.0 mg/kg/injection, schedule: Q01DX005 (ip), vehicle: Klucel (hydroxypropylcellulose) (HPC)): 104 % of control | T/C (dose: 30.0 mg/kg/injection, schedule: Q01DX005 (ip), vehicle: Klucel (hydroxypropylcellulose) (HPC)): 86 % of control

S=C(Nc1ccc2c(c1)OCO2)SCc1ccc(Cl)c(Cl)c1
T/C (dose: 12.5 mg/kg/injection, schedule: Q01DX009 (ip), vehicle: Klucel (hydroxypropylcellulose) (HPC)): 91 % of control | T/C (dose: 25.0 mg/kg/injection, schedule: Q01DX009 (ip), vehicle: Klucel (hydroxypropylcellulose) (HPC)): 105 % of control | T/C [4]: 107 % of control | T/C [10]: 106 % of control | T/C (dose: 50.0 mg/kg/injection, schedule: Q01DX009 (ip), vehicle: suspension in saline): 103 % of control | T/C [11]: 108 % of control | T/C [13]: 93 % of control | T/C [12]: 118 % of control | T/C (dose: 200.0 mg/kg/injection, schedule: Q01DX009 (ip), vehicle: suspension in saline): 98 % of control

CCOP(=S)(O/C(=C/Cl)c1cc(Cl)c(Cl)cc1Cl)c1ccccc1 (centres undefined)
T/C [4]: 92 % of control | T/C [5]: 95 % of control | T/C [6]: 96 % of control

COC(=O)CC1(O)C(=O)OCc2c1cc1n(c2=O)Cc2c-1nc1ccccc1c2OC (centres undefined)
T/C (dose: 12.5 mg/kg/injection, schedule: Q01DX009 (ip), vehicle: saline): 167 % of control | T/C [10]: 194 % of control | T/C [11]: 150 % of control and 184 % of control | T/C [13]: 86 % of control

C=CC(C)(C)N1C(=O)C(C(C)=O)=C(O)C1Cc1c[nH]c2ccccc12 (centres undefined)
T/C (dose: 8.75 mg/kg/injection, schedule: Q01DX005 (ip), vehicle: Klucel (hydroxypropylcellulose) (HPC)): 99 % of control | T/C (dose: 17.5 mg/kg/injection, schedule: Q01DX005 (ip), vehicle: Klucel (hydroxypropylcellulose) (HPC)): 99 % of control | T/C (dose: 35.0 mg/kg/injection, schedule: Q01DX005 (ip), vehicle: Klucel (hydroxypropylcellulose) (HPC)): 97 % of control

Cc1cc2c(cc1C)-c1c(oc3cc(C)c(C)cc13)-c1ccccc1C(=O)O2
T/C [14]: 94 % of control | T/C [15]: 97 % of control | T/C (dose: 200.0 mg/kg/injection, schedule: Q01DX009 (ip), vehicle: saline with Tween-80): 97 % of control

COc1ccc(C2SCC(=O)N2c2nncs2)cc1F (centres undefined)
T/C [16]: 92 % of control | T/C [17]: 96 % of control | T/C [18]: 92 % of control

CC(C)c1ccc(OS(=O)(=O)C(F)(F)C(F)(F)C(F)(F)C(F)(F)F)cc1
T/C [14]: 99 % of control | T/C [15]: 105 % of control

Cn1cc(N)c(=O)[nH]c1=O
T/C (dose: 50.0 mg/kg/injection, schedule: Q01DX005 (ip), vehicle: saline): 98 % of control | T/C (dose: 100.0 mg/kg/injection, schedule: Q01DX005 (ip), vehicle: saline): 101 % of control | T/C (dose: 200.0 mg/kg/injection, schedule: Q01DX005 (ip), vehicle: saline): 102 % of control

CN(C)c1ccc(/C(O)=C\c2ncnc3ccccc23)cc1
T/C [7]: 94 % of control | T/C [8]: 94 % of control | T/C [9]: 93 % of control

Cn1c(-c2ccc(/C=N/N=C(\N)N/N=C/c3ccc(-c4c[n+]5ccsc5n4C)cc3)cc2)c[n+]2ccsc12
T/C (dose: 0.13 mg/kg/injection, schedule: Q01DX005 (ip), vehicle: saline): 108 % of control | T/C (dose: 0.25 mg/kg/injection, schedule: Q01DX005 (ip), vehicle: saline): 121 % of control

O=C1S/C(=C2\C(=O)N(CN3CCCCC3)c3ccccc32)C(=O)N1CN1CCCCC1
T/C [16]: 99 % of control | T/C [17]: 96 % of control | T/C [18]: 92 % of control

CC(C)(C)N1CC(C(=O)c2ccccc2)C1c1ccccc1 (centres undefined)
T/C (dose: 50.0 mg/kg/injection, schedule: Q04DX003 (ip), vehicle: saline with Tween-80): 100 % of control | T/C (dose: 100.0 mg/kg/injection, schedule: Q04DX003 (ip), vehicle: saline with Tween-80): 98 % of control | T/C (dose: 200.0 mg/kg/injection, schedule: Q04DX003 (ip), vehicle: saline with Tween-80): 97 % of control | T/C (dose: 400.0 mg/kg/injection, schedule: Q04DX003 (ip), vehicle: saline with Tween-80): 97 % of control
